In assay [1] the test system is human glioma cell U87. Put plainly: Pharmacodynamic study in human glioma cell U87 subcutaneous model. The assay is classed as in vivo, Balb/c nude mice. The following applies: compounds 20 mg/Kg, q.d.×14 days. From the text: The route of administration was intragastric administration ([…]., q.d.×14 days).
The subject of assay [2] is U251MG human glioma cells. Put plainly: In-vitro anti-cancer activity screening, SRB method, U251MG. The assay is classed as cell-based. Particulars: U-251. Here is the method: (§1) Referring to the method of example 9, two tumor cell lines, U251MG and U251TR human glioma cells, were selected, and temozolomide and the compounds of the present disclosure were subjected to in-vitro anti-cancer activity screening using the SRB method.

The subject of assay [3] is U251TR human glioma cells. The experiment in a line: In-vitro anti-cancer activity screening, SRB method, U251TR. The assay is classed as cell-based. Particulars: Glioma cell, drug-resistant strain. Here is the method: as §1
For assay [4], the system named is human glioma cells (LN229). The experiment in a line: In-vitro growth inhibition, MTT method, LN229. In kind it is cell-based. The following applies: LN-229, 48 h. As for the experimental part: (§2) The in-vitro growth inhibitory activity of compounds 1 to 8 of the present disclosure against human glioma cells (U87 and LN229), human hepatoma cells (SMMC-7721) and human pancreatic carcinoma cells (Panc1) was studied adopting the MTT method.
(§3) U87, LN229, SMMC-7721 and Panc1 cells growing at log phase were separately inoculated into a 96-well plate at a density of 5×10^4 cells/mL, 180 μL/well. After the cells were attached to the wall, 20 μL of a drug liquid was added to each well, so that the final concentrations of the drug were 0 μM, 5 μM, 10 μM, 20 μM and 50 μM. After 48 h of action, a 5 mg/mL MTT solution (20 μL/well) was added. After the cells were incubated in a CO2 incubator for 3 to 4 h, the supernatant was carefully discarded. After the residual liquid was air-dried, acidified isopropanol (50 μL of concentrated hydrochloric acid dissolved in 500 mL of isopropanol) was added at […], and the plate was shaken on a shaker for 30 min. After the crystals were completely dissolved, absorbance OD values were measured by a microplate reader at 570 nm.
(§4) Cell viability %=(drug-treated cell OD−blank group OD)/(control cell OD−blank group OD)×100
(§5) Cell killing rate %=1−cell viability %

The test system of assay [5] is human pancreatic carcinoma cells (Panc1). The experiment in a line: In-vitro growth inhibition, MTT method, Panc1. In kind it is cell-based. The following applies: PANC-1, 48 h. Here is the method: as §2, §3, §4, §5
The test system of assay [6] is human hepatoma cells (SMMC-7721). Put plainly: In-vitro growth inhibition, MTT method, SMMC-7721. In kind it is cell-based. The following applies: 48 h. As for the experimental part:
as §2, §3, §4, §5

Assay [7] concerns human glioma cells (U87). Put plainly: In-vitro growth inhibition, MTT method, U87. In kind it is cell-based. Particulars: Glioma cell, 48 h. Here is the method:
as §2
as §3, with “After the cells were attached to the wall, 20 μL of a drug liquid was added to each well, so that the final concentrations of the drug were 0 μM, 5 μM, 10 μM, 20 μM and 50 μM.” left out
as §4, §5

The test system of assay [8] is human glioma cell U87. Put plainly: Tumor volume inhibition rate, i.v. dosing. In kind it is in vivo, Balb/c nude mice. The following applies: Mus musculus, iv, TMZ 10 mg·kg^−1, i.v. As for the experimental part:
In addition, low-dosage 0409 (20 mg·kg^−1, i.v.) and TMZ (10 mg·kg^−1, i.v.) were synchronously used for an assay to determine the volume tumor inhibition rate.

In assay [9] the test system is human glioma cell U87. The experiment in a line: In-vivo antitumor activity, U87 tumor-bearing nude mice, i.g. dosing. The arrangement: species or system Balb/c nude mice. The following applies: temozolomide group 30 mg·kg^−1, i.g., q.d., end of the experiment; for Tumor volume: 11 days. From the text:
The tumor emergence rate was 100%.
The solvent was freshly prepared when needed each day.

The mark [10] stands for this setting: 240 h, Day 10, 20 mg·kg^−1, i.v.
Setting [11] is: 264 h, Day 11, 20 mg·kg^−1, i.v.
The mark [12] stands for this setting: 288 h, Day 12, 20 mg·kg^−1, i.v.
Where [13] appears, read: 312 h, Day 13, 20 mg·kg^−1, i.v.
The mark [14] stands for this setting: 336 h, Day 14, 20 mg·kg^−1, i.v.
[15] abbreviates: 360 h, Day 15, 20 mg·kg^−1, i.v.
Setting [16] is: 384 h, Day 16, 20 mg·kg^−1, i.v.
The mark [17] stands for this setting: 408 h, Day 17, 20 mg·kg^−1, i.v.
Where [18] appears, read: 432 h, Day 18, 20 mg·kg^−1, i.v.

Marks after values point to notes of the source that are not given here.

Turning to `Cc1ccc2[se]n(CCNC(=O)c3ncn4c(=O)n(C)nnc34)c(=O)c2c1` [Compound 6, 3,4-dihydro-3-methyl-4-oxo-N-(3(2H)-oxo-5-methyl-1,2-benzisoselenazol-2-yl)-ethyl-imidazo[5,1-d]-1,2,3,5-tetrazine-8-carboxamide], the Tumor inhibition rate in assay [1] (Day 1) is listed as 9.05%; in assay [1] (Day 4), 68.76%; in [1] (Day 7), 84.09%; in assay [1] (Day 10) it was 86.55%; in assay [1] (Day 14 (end of the experiment)) it was 92.48%. Moreover, the IC50 in assay [2] came to 1.26 ± 0.83 µM; in assay [3], 29.4 ± 3.21 µM; in assay [4], 11.3 ± 0.82 µM; in assay [5], 29.3 ± 0.42 µM; in assay [6] it was 11.2 ± 2.11 µM; in assay [7], 19.2 ± 3.77 µM. Further, the inhibition in vivo at 20 mg/kg in assay [8] (setting [10]) amounted to 91.5%; in assay [8] (setting [11]), 91.6%; in assay [8] (setting [12]), 90.1%; in assay [8] (setting [13]), 88.5%; in assay [8] (setting [14]), 88%; in [8] (setting [15]), 88.9%. The inhibition in vivo at 20 mg/kg in assay [8] (setting [16]) stood at 87.5%; in [8] (setting [17]), 88.5%; in assay [8] (setting [18]), 88.3%.

As for `COc1ccc2[se]n(CCNC(=O)c3ncn4c(=O)n(C)nnc34)c(=O)c2c1` [Compound 7, 3,4-dihydro-3-methyl-4-oxo-N-(3(2H)-oxo-5-methoxy-1,2-benzisoselenazol-2-yl)-ethyl-imidazo[5,1-d]-1,2,3,5-tetrazine-8-carboxamide], the 50% inhibitory concentration (IC50) is 154 ± 5.64 µM in [2]; over 500 µM in assay [3]; 21.2 ± 1.28 µM in [4]; 15.7 ± 6.22 µM in assay [5]; 27 ± 3.22 µM in [6]; 47 ± 2.88 µM in assay [7]. Also, the inhibition in vivo at 20 mg/kg in [8] (setting [10]) was 22%; in assay [8] (setting [11]) it was 29.7%; in assay [8] (setting [12]), 37.5%; in assay [8] (setting [13]), 48%; in assay [8] (setting [14]), 45.5%; in assay [8] (setting [15]), 51.4%. Besides, the inhibition in vivo at 20 mg/kg amounted to 59.7% in [8] (setting [16]), 46.3% in [8] (setting [17]) and 54.7% in assay [8] (setting [18]).

Regarding `Cn1nnc2c(C(=O)NCCn3[se]c4ccc(Cl)cc4c3=O)ncn2c1=O` [Compound 4, 3,4-dihydro-3-methyl-4-oxo-N-(3(2H)-oxo-5-chloro-1,2-benzisoselenazol-2-yl)-ethyl-imidazo[5,1-d]-1,2,3,5-tetrazine-8-carboxamide], the IC50 is 126 ± 13.3 µM in assay [2]; over 500 µM in assay [3]; 44.1 ± 6.09 µM in assay [4]; 24.2 ± 11.9 µM in assay [5]; 5.6 ± 5.84 µM in assay [6]; 134 ± 15.8 µM in assay [7]. Also, the inhibition in vivo at 20 mg/kg in assay [8] (setting [10]) amounted to 73.5%; in [8] (setting [11]), 75.2%; in assay [8] (setting [12]), 74.5%; in assay [8] (setting [13]), 68.8%; in [8] (setting [14]), 74%; in assay [8] (setting [15]), 80.6%. In addition, the inhibition in vivo at 20 mg/kg in [8] (setting [16]) is 84.3%; in [8] (setting [17]) it was 84.7%; in [8] (setting [18]), 81%.

For `Cn1nnc2c(C(=O)NCCn3[se]c4ccc(Br)cc4c3=O)ncn2c1=O` [Compound 5, 3,4-dihydro-3-methyl-4-oxo-N-(3(2H)-oxo-5-bromo-1,2-benzisoselenazol-2-yl)-ethyl-imidazo[5,1-d]-1,2,3,5-tetrazine-8-carboxamide], the IC50 was 61.7 ± 5.79 µM in [2]; 56.2 ± 11.7 µM in assay [3]; 14.4 ± 3.89 µM in assay [4]; 4.41 ± 2.89 µM in assay [5]; 7.77 ± 3.28 µM in assay [6]; 35.8 ± 6.27 µM in assay [7]. Besides, the inhibition in vivo at 20 mg/kg in [8] (setting [10]) was 27.1%; in assay [8] (setting [11]), 27%; in assay [8] (setting [12]), 36.8%; in assay [8] (setting [13]), 36.8%; in [8] (setting [14]) it was 44.6%; in assay [8] (setting [15]) it was 59.5%. Besides, the inhibition in vivo at 20 mg/kg in [8] (setting [16]) was 61.2%; in assay [8] (setting [17]) it was 58.5%; in assay [8] (setting [18]), 64.4%.

Turning to `Cn1nnc2c(C(=O)NCCn3[se]c4ccc(F)cc4c3=O)ncn2c1=O` [Compound 2, 3,4-dihydro-3-methyl-4-oxo-N-(3(2H)-oxo-5-fluoro-1,2-benzisoselenazol-2-yl)-ethyl-imidazo[5,1-d]-1,2,3,5-tetrazine-8-carboxamide], the IC50 was 363 ± 21.4 µM in assay [2]; over 500 µM in assay [3]; 52.2 ± 10.7 µM in assay [4]; 22.2 ± 8.78 µM in assay [5]; 16.4 ± 3.59 µM in assay [6]; over 500 µM in assay [7]. For the same compound, the inhibition in vivo at 20 mg/kg in assay [8] (setting [10]) came to 85%; in assay [8] (setting [11]) it was 84.6%; in assay [8] (setting [12]) it was 82.9%; in assay [8] (setting [13]), 85.8%; in [8] (setting [14]), 86.3%; in [8] (setting [15]), 85.8%. Besides, the results for the inhibition in vivo at 20 mg/kg in assay [8] (setting [16]), in assay [8] (setting [17]) and in assay [8] (setting [18]) were 84.4%, 86.7% and 86.5%, respectively.

Regarding `Cn1nnc2c(C(N)=O)ncn2c1=O` [TMZ, temozolomide, reference compound], the Tumor inhibition rate in assay [1] (Day 1) came to 6.77%; in assay [1] (Day 4) it was 38.14%; in assay [1] (Day 7) it was 54.29%; in assay [1] (Day 10), 46.23%; in [1] (Day 14 (end of the experiment)), 14.26%. In addition, the IC50 was 431 ± 25.8 µM in assay [2], over 500 µM in [3], over 500 µM in [4] and 373 ± 24.1 µM in assay [7]. Further, the values for the Tumor volume in [9] and in [9] (listed as Temozolomide) were 209.18±57.83 mm^3 and 209.18 ± 57.83*** mm^3, respectively. The “Tumor proliferation inhibition rate” value in [9] was determined as 62.75%. In addition, the Tumor weight in assay [9] and in assay [9] (listed as Temozolomide) was 0.29 ± 0.07 g each time. For the same compound, the inhibition in vivo at 20 mg/kg in assay [8] (setting [10]) was found to be 36.7%; in assay [8] (setting [11]), 58.9%; in assay [8] (setting [12]), 38%; in [8] (setting [13]), 38.1%; in assay [8] (setting [14]), 24.4%; in assay [8] (setting [15]) it was 63.9%. In addition, the figures for the inhibition in vivo at 20 mg/kg in assay [8] (setting [16]), in [8] (setting [17]) and in [8] (setting [18]) were 54.3%, 51% and 54.5%, respectively.
